According to ChEMBL document CHEMBL1201862, “PubChem BioAssay data set” (2004):
Active and inactive are the calls of the source.

Tests used:
[1] = target: Voltage-gated inwardly rectifying potassium channel KCNH2 (Homo sapiens, UniProt Q12809); assay: concentration-dependent hERG rescue from blockers – cell-based, thallium flux, dose response (AID 2121); format: ADME
[2] = HEK-293T cell viability reduction – luminescence, B-cell screen hits, cytotoxicity control for BCR NF-kB inhibitor project, dose response (AID 489021); format: functional, cell-based;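 further: HEK-293T cells carrying an NF-kB luciferase reporter; cells exposed to compound for about 14 hours before viability readout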
fMet-Leu-Phe receptor = target: T1, fMet-Leu-Phe receptor (Homo sapiens, UniProt P21462); assay: formyl peptide receptor binders – dose response (AID 519); format: functional
T1 sequence (P21462 whole entry): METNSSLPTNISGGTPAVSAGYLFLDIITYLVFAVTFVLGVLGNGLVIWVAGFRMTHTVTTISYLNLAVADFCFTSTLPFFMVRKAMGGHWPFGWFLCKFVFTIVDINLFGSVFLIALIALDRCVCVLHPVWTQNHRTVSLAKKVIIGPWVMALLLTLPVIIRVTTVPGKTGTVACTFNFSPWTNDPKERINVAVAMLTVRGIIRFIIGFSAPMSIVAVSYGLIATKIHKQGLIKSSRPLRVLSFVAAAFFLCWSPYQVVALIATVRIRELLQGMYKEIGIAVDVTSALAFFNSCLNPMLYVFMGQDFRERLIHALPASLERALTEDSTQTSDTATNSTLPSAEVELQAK

[3] = target: T2, Carboxy-terminal domain RNA polymerase II polypeptide A small phosphatase 1 (Homo sapiens, UniProt Q9GZU7); assay: CTDSP1 inhibitors, concentration-response, biochemical, absorbance readout, ultra-high-throughput screen actives (AID 540297); format: functional
T2 sequence (Q9GZU7 whole entry): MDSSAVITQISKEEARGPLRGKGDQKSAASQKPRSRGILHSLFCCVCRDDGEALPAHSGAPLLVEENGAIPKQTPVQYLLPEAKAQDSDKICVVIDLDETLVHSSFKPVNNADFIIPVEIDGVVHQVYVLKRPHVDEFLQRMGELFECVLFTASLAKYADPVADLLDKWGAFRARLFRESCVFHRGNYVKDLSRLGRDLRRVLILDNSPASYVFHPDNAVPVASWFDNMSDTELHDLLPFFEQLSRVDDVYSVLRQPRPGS

[4] = Luminescence-based cell-based high throughput dose response assay to identify activators of the DAF-12 from the parasite S. stercoralis (ssDAF-12).; format: functional
[5] = target: T3, Oxysterols receptor LXR-beta (Homo sapiens, UniProt P55055); assay: LXR agonists, Gal4 luciferase reporter, dose response, counter-screen for ssDAF-12 agonist project, cell-based, luminescence, HEK293, S. stercoralis campaign (AID 720737); format: functional; conditions: read-out: IC50 (the source's name)
T3 sequence (P55055 whole entry): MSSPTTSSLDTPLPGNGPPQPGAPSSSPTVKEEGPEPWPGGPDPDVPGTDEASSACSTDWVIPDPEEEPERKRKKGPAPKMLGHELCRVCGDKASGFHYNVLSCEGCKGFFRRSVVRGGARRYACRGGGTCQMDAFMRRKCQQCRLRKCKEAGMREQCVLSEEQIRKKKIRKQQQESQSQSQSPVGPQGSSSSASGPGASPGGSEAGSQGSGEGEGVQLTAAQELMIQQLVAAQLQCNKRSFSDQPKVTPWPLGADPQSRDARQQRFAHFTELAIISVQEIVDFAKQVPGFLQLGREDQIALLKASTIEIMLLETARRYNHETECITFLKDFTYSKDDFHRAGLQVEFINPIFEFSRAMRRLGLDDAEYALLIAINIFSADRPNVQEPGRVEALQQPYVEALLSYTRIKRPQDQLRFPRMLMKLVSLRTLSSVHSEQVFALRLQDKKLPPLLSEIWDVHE

[6] = target: T4, Small ubiquitin-related modifier 1 (Homo sapiens, UniProt P63165); assay: SUMO1 protein-protein binding blockers, potency – biochemical, FRET, dose response (AID 624383); format: functional; conditions: read-out: IC50_Mean
T4 sequence (P63165 whole entry): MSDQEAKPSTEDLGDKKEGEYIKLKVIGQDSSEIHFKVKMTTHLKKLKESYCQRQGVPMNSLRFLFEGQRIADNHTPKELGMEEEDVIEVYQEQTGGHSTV

[7] = target: T4, Small ubiquitin-related modifier 1; assay: SUMO1 protein interaction blockers, potency – biochemical, fluorescence polarization, uHTS hits, dose response (AID 624382); format: functional; conditions: read-out: IC50_Mean
Vero [8] = assay: cells; format: functional; conditions: Chlorocebus sabaeus
Vero [9] = assay: cells; format: functional, cell-based; conditions: Chlorocebus sabaeus
Protein skinhead-1 = target: T5, Protein skinhead-1 (Caenorhabditis elegans, UniProt P34707); format: functional
T5 sequence (P34707 whole entry): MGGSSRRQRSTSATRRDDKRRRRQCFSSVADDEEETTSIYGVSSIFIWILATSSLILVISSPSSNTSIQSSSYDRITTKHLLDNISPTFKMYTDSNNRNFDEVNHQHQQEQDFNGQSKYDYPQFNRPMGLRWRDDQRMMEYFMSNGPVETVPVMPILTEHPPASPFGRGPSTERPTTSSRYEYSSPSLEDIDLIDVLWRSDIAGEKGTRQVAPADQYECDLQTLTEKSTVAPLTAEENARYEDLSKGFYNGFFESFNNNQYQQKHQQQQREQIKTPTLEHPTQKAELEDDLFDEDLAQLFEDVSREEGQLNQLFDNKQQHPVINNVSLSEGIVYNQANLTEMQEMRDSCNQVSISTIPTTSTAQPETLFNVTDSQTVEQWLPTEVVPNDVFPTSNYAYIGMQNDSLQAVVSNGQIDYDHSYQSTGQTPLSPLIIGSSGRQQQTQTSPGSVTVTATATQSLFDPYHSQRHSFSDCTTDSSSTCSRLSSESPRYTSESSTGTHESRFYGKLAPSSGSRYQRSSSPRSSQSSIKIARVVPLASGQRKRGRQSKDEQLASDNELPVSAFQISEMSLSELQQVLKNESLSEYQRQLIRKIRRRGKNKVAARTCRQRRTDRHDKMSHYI

[10] = target: E3 ubiquitin-protein ligase Mdm2 (Homo sapiens, UniProt Q00987); assay: MDM2-luc reporter signal enhancers, multi-concentration potency testing, MDM2 ubiquitin-protein ligase inhibitor program, whole-cell format, luminescence detection, 384-well microplate (AID 1394); format: functional;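 further: MDM2 E3 inhibitors raise luminescence so EC50 is for signal enhancement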
Sequence of E3 ubiquitin-protein ligase Mdm2 (Q00987 whole entry): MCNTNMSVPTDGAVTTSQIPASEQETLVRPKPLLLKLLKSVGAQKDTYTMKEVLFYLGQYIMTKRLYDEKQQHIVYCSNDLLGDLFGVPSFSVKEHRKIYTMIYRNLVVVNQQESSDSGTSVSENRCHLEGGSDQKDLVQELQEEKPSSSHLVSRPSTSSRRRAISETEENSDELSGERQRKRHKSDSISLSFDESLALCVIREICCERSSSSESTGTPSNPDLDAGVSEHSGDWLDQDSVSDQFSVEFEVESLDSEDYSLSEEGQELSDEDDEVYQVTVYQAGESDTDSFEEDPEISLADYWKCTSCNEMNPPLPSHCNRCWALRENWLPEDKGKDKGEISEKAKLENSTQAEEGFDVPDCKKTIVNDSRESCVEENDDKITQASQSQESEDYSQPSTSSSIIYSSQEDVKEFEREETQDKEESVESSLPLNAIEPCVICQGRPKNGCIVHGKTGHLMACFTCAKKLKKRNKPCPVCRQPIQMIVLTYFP

cells [11] = format: functional, cell-based
cells [12] = format: functional, cell-based; remark: listed apart in the source
[13] = target: T6, Long-chain-fatty-acid--AMP ligase FadD28 (Mycobacterium tuberculosis, UniProt P9WQ59); assay: Fluorescence polarization aasay to screen for inhibitors that compete for the binding of FadD28 to a bisubstrate Measured in Biochemical System Using Plate Reader - 2147-01_Inhibitor_Dose_CherryPick_Activity.; format: functional, Mycobacterium tuberculosis H37Rv
T6 sequence (P9WQ59 whole entry): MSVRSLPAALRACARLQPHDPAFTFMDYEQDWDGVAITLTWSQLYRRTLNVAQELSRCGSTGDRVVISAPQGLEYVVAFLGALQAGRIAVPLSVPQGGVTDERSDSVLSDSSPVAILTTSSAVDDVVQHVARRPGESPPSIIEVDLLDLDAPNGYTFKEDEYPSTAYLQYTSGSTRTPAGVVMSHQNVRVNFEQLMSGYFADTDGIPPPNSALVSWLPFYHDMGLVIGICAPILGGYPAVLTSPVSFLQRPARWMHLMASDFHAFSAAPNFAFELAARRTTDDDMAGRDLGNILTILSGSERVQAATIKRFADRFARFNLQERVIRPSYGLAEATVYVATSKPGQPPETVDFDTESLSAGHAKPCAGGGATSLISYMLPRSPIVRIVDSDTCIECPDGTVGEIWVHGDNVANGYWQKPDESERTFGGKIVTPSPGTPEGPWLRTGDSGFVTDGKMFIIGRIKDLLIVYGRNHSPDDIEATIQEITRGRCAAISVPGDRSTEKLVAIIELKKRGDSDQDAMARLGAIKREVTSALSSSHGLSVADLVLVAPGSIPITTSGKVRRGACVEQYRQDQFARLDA

Sequence of Voltage-gated inwardly rectifying potassium channel KCNH2 (Q12809 whole entry): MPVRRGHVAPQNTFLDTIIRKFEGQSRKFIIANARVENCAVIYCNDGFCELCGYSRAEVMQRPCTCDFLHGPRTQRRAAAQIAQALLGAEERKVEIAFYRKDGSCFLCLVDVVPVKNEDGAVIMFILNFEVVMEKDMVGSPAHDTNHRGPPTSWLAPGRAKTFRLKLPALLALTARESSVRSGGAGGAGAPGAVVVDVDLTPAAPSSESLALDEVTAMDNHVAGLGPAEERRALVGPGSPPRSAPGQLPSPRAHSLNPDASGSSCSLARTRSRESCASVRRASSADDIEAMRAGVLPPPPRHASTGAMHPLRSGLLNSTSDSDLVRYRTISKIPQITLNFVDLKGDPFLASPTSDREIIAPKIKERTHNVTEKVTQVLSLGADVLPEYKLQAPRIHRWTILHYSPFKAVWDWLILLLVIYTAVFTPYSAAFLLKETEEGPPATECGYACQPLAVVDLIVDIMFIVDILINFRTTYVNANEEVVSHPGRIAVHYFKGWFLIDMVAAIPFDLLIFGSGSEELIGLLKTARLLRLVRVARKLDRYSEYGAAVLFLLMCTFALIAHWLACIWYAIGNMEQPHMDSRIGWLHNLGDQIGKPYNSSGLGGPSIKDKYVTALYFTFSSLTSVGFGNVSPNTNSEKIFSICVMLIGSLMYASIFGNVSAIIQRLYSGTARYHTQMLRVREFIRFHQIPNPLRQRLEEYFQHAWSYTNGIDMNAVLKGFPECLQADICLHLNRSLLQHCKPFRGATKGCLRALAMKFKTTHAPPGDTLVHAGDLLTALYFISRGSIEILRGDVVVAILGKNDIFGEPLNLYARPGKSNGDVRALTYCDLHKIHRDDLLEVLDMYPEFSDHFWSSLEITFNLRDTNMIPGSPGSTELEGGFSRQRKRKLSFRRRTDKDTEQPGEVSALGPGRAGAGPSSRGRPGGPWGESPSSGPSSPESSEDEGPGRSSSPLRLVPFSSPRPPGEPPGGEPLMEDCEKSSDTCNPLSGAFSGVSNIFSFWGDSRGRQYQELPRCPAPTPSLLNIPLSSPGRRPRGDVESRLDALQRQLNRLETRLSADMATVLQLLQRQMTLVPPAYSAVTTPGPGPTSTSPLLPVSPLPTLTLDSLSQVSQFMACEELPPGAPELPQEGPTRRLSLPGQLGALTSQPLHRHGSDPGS

CCOC(=O)Cc1csc(NC(=S)NC(=O)c2ccc(Cl)cc2)n1
EC50 [1]: 0.55 µM (active) | IC50 [2]: > 80 µM (inactive)

COc1ccc(-c2cn3cccnc3n2)cc1NC(=O)CC(C)C
Ki (fMet-Leu-Phe receptor): > 66.7 µM (inactive)

Cc1ccn2c(=O)nc(SCC(=O)NCc3ccccc3Cl)nc2c1
IC50 [3]: 8.34 µM (active)

CC(c1nccs1)N(C)C(=O)CCc1nnc(Cc2c[nH]c3ccccc23)o1 (stereo unspecified)
IC50 [4]: > 67.5 µM (inactive) | EC50 [5]: > 67.5 µM (inactive)

C=CCn1c(NC(=O)c2ccccc2)c(C#N)c2nc3ccccc3nc21
Ki (fMet-Leu-Phe receptor): > 66.7 µM (inactive)

O=C(Nc1cccnc1Cl)c1cc(-c2cccc(O)c2)on1
IC50 [6]: 8.84 µM (active) | IC50 [7]: > 66.6 µM (inactive)

COc1ccc(C(=O)/C=C/c2ccc(OC)c(CN3CCOCC3)c2)cc1
CC50 (Vero [8]): 22.6 µM (active) | IC50 (Vero [9]): 9.3 µM (active) | IC50 (Protein skinhead-1): 6.86 µM (active)

CCCN(CCC)C(S)=Nc1cc(C(=O)OC)ccc1C(=O)OC
EC50 [10]: 343 µM (not active) | EC50 (cells [11]): > 350 µM (not active) | EC50 (cells [12]): > 350 µM (not active)

CC(=O)N1CCN(Cc2nc3cc(NC(=O)NC4CCCCC4)ccc3n2C)CC1
AC50 [13]: 81 µM (active)
